Entries after “also recorded” stand apart in the source; their conditions may differ. Where two headings read alike, the source gives them in different places.
Tests used:
[1] = Plasma pharmacokinetics of BN201 in rats (LC-MS/MS, WinNonlin); format: in vivo, Sprague Dawley Rat; details: 7 doses, Mean ± SEM; for Vd: iv, 25 mg/kg; for AUC(0-inf) / AUC(0-t) / Cmax / Tmax / half-life / AUC_%Extrap (obs): rat plasma
Method: (§1) • Receipt of animals (Male Sprague Dawley Rats, Age: 12-13 weeks, Body weight range at the time of study initiation: 306.8 — 385.2 g) and acclimatization of animals for a period of at least one week • Day 0: Administration of Lysolecithin in optic nerve • Administration of test compound (BN201) daily (Day 0 to day 6=7 doses in total) intra-peritoneally (IP) at various doses (10 mg/Kg, 25 mg/Kg, 70 mg/Kg) and Intravenously (infusion 25 mg/Kg) over 2 h for block1. • On day 6, Sampling of blood from block1 for plasma at predetermined time points (8-9 time points) for PK and tissue collection (Eye and optic nerve) for histopathological assessment. • Determination of plasma levels of BN201 by LC-MS/MS • Determination of Pharmacokinetic Parameters of BN201 by WinNonlin Analysis • Test compound administration (IP@10 & 25 mg/Kg) once daily (Day 0 to day 6=7 doses in total) for block2; Tissue collection (Eye and optic nerve collection during termination of the study) on day 14, and 28 for histopathological assessment. 3. Animal Conditioning
(§2) • Group 1 and 2 served as sham and pathological control respectively and only saline was administered • Test compound was delivered once at various doses (as mentioned above) through IP or IV infusion in the respective groups. The first dosage was given 1 hour after Lysolecithin injection and repeated once/day until the end of the experiment • On day 6, blood was collected at various time points after administration of test item for drug concentration measurement: • Group 3-5 (IP groups): Pre-dose, 0.25, 0.5, 1, 4, 8 h, 12 h & 24 h (8 time points) • Group 6 (IV Infusion group): Pre-dose, then the following times post infusion: Oh (end of the infusion), 0.25 h, 0.5 h, 1 h, 4 h, 8 h, 12 h & 24 h (9 time points) • ˜200 μL of blood per time point was collected from Jugular vein for all the time points in K2EDTA blood collection tubes and stored at 4° C. until plasma separation within 30 minutes. After plasma separation, all the plasma samples were stored in two aliquots at −80° C. until the completion of all the time points. Further, one aliquot of plasma samples was submitted together to the DMG/KG for drug concentration analysis. 9. Observation and Readouts 9.1 Body weight
Study samples were processed by protein precipitation method using cold acetonitrile. In brief, 10 μL of plasma was mixed with 200 μL of acetonitrile containing 100 ng/mL-Verapamil as internal standard. The contents were vortexed to ensure mixing and the precipitated protein was removed by centrifugation at 4000 rpm for 15 minutes at 4° C. The supernatant was collected and submitted for Bioanalysis.

[2] = system: Lysolecithin induced optic neuritis in SD Rats; test: Retinal ganglion cell (RGC) count in lysolecithin induced acute optic neuritis model; format: in vivo, Sprague Dawley Rat
Method: as §1
(§3) Animals were anesthetized; the shaved skin was disinfected with 75% ethanol. A 1 cm incision was made in the skin above the orbit of an eye. The lacrimal glands and extraocular muscles were resected to expose 3 mm of the optic nerve under an operating microscope. The dura and arachnoid matter around the optic nerve were opened longitudinally. A small amount of dye was placed on the dura to show the microinjection site. This is done to identify the focal lesion for the histology. Microinjection was performed with a glass micropipette attached to a Hamilton syringe. The pipette was inserted into the optic nerve as superficially as possible at 2 mm posterior to the globe, and 0.8 μL of 1% lysolecithin (with 0.02% Evan's Blue) was slowly pressure-injected into the nerve over approximately 30 seconds. The sham control rats (animals without disease) were injected with 0.02% Evan's Blue in 0.8 μL saline without lysolecithin. After the injection, the skin incision was sutured, and antibiotic solution were administered to prevent infection.
as §2
(§4) • Animals were euthanized on Day 7 with CO2 and were perfused transcardially with saline and 4% paraformaldehyde. Optic nerves (from globe to chiasm) and eye were removed and were fixed in 1% paraformaldehyde overnight. Eye from all the animals were collected in Davidson's fixative. • All tissues were processed in an automatic tissue processor and embedded in paraffin. Five-micro meter-thick (5 μm) transverse sections were made at the site of injections (at the place of the dye) using a rotary microtome. • Serial sections of each optic nerve were obtained (4-6 sections). […]

[3] = system: Lysolecithin induced optic neuritis in SD Rats; test: Demyelination score (Luxol fast blue stained optic nerve) in lysolecithin induced acute optic neuritis model; format: in vivo, Sprague Dawley Rat
Method: as §1, §3, §2, §4

[4] = system: Lysolecithin induced optic neuritis in SD Rats; test: Axonal loss score (BSS stained optic nerve) in lysolecithin induced acute optic neuritis model; format: in vivo, Sprague Dawley Rat
Method: as §1, §3, §2, §4

[5] = Body weight in lysolecithin induced acute optic neuritis study; format: in vivo, Sprague Dawley Rat; details: Blocks 1 & 2, compared to pathological control group
Method: Body weight measurement was performed every morning from day 0 to day 7. All animals were observed regularly for clinical signs.

[6] = system: Lysolecithin induced optic neuritis in SD Rats; test: Inflammation (H&E stained optic nerve) in lysolecithin induced acute optic neuritis model; format: in vivo, Sprague Dawley Rat; details: BN201 treatment, conclusions over blocks 1 and 2
Method: as §1
Animals were anesthetized; the shaved skin was disinfected with 75% ethanol. […]
• Group 1 and 2 served as sham and pathological control respectively and only saline was administered • Test compound was delivered once at various doses (as mentioned above) through IP or IV infusion in the respective groups. […] Observation and Readouts 9.1 Body weight […]

[7] = system: Lysolecithin induced optic neuritis in SD Rats; test: Overall efficacy in lysolecithin induced acute optic neuritis model; format: in vivo, Sprague Dawley Rat; details: daily IV 25 mg/Kg (2 h infusion) compared to 10, 25 and 70 mg/Kg IP
Method: The aim of Block1 was to determine the efficacy of BN201 administered intraperitoneally at various doses (10 mg/Kg, 25 mg/Kg, 70 mg/Kg) and intravenously at 25 mg/Kg in Lysolecithin induced optic neuritis in SD Rats (7 days study).
The aim of Block2 was to determine the efficacy of BN201 in long duration model of lysolecithin induced optic neuritis in SD rats (14 and 28 day study) […]
• Group 1 and 2 served as sham and pathological control respectively and only saline was administered • Test compound was delivered once at various doses (as mentioned above) through IP or IV infusion in the respective groups. […] Observation and Readouts 9.1 Body weight

[8] = Phase 1 trial in healthy volunteers (pharmacokinetics); format: in vivo; details: humans
[9] = system: serum-glucocorticoid (SGK) pathway; details: cited from earlier work
[10] = male, Sprague Dawley, IP 10 mg/Kg once daily
[11] = male, Sprague Dawley, IP 25 mg/Kg once daily
[12] = male, Sprague Dawley, IP 70 mg/Kg once daily
[13] = male, Sprague Dawley, IV infusion 25 mg/Kg over 2 h once daily
[14] = BN201 treatment, short term and long term, summary vs untreated groups
[15] = Block 2, day 28, 25 mg/Kg IP day 0 to day 6, vs placebo (p<0.05)

MRT inf ([1]; male, Sprague Dawley, plasma, rat, IV infusion 25 mg/Kg over 2 h once daily): 3 h
clearance ([1]; male, Sprague Dawley, plasma, rat, IV infusion 25 mg/Kg over 2 h once daily, read-out: CLp (converted)): 31.7 mL/min/kg
Vd ([1]; male, Sprague Dawley, rat, plasma, rat, IV infusion 25 mg/Kg over 2 h once daily, read-out: Vd): 15.8 ± 2.2 L/kg
Vd ([1]; male, Sprague Dawley, rat, plasma, rat, IV infusion 25 mg/Kg over 2 h once daily, read-out: Vdss): 5.7 ± 1.2 L/kg
AUC(0-inf) [1, 10]: 6990 ng·h/mL
AUC(0-t) [1, 10]: 6920 ± 385 ng·h/mL
Cmax [1, 10]: 6680 ± 349 ng/mL
Tmax [1, 10]: 0.3 h
half-life [1, 10]: 5.5 ± 0.9 h
AUC(0-inf) [1, 11]: 14700 ± 840 ng·h/mL
AUC(0-t) [1, 11]: 14500 ± 859 ng·h/mL
Cmax [1, 11]: 14400 ± 1540 ng/mL
Tmax [1, 11]: 0.3 h
half-life [1, 11]: 5.8 ± 0.2 h
AUC(0-inf) [1, 12]: 62800 ± 2760 ng·h/mL
AUC(0-t) [1, 12]: 62400 ± 2720 ng·h/mL
Cmax [1, 12]: 34700 ± 2010 ng/mL
Tmax [1, 12]: 0.3 h
half-life [1, 12]: 4.7 ± 0.8 h
AUC(0-inf) [1, 13]: 15400 ± 1810 ng·h/mL
AUC(0-t) [1, 13]: 15100 ± 1780 ng·h/mL
Cmax [1, 13]: 10400 ± 1320 ng/mL
Tmax [1, 13]: 2 h
half-life [1, 13]: 6.2 ± 0.9 h
AUC_%Extrap (obs) ([1]; IP 10 mg/Kg once daily): 1 ± 0.2%
AUC_%Extrap (obs) ([1]; IP 25 mg/Kg once daily): 1 ± 0.3%
AUC_%Extrap (obs) ([1]; IP 70 mg/Kg once daily): 0.5 ± 0.1%
AUC_%Extrap (obs) ([1]; IV infusion 25 mg/Kg over 2 h once daily): 1.6 ± 0.2%
half-life ([8]; human, in vivo): ≤ 8 h
clearance of the drug [8]: quick clearance
drug accumulation [8]: lack of drug accumulation
Structure (SMILES): CC(C)CN(CC(=O)N(CCCN1CCCC1=O)CC(N)=O)C(=O)CNCCc1ccccc1F [BN201, [N-(2-(2′-fluorophenyl)ethyl)-glycyl]-[N-(2-methylpropyl)-glycyl]-N-[3-(2′-oxopyrrolidinyl)-propyl]glycinamide]
retinal ganglion cells [2, 14]: significant improvement in retinal ganglion cells
protection against retinal ganglion cell loss ([2]; Block 1, day 7, 25 mg/Kg IP): 48%
protection against retinal ganglion cell loss ([2]; Block 1, day 7, 70 mg/Kg IP): 69%
RGC count ([2]; Block 1, day 7, BN201 treated groups vs pathological control): trend of increased RGC count
RGC count ([2]; Block 1, day 7, IV infusion 25 mg/Kg vs pathological control): statistically significant improvement in RGC count
RGC count [2, 15]: improvements; also recorded: significantly higher
demyelination [3, 14]: reduced; also recorded: significant improvement
protection against demyelination (demyelination score) ([3]; Block 1, day 7, 10 mg/Kg IP): 13%
protection against demyelination (demyelination score) ([3]; Block 1, day 7, 25 mg/Kg IP): 15%
protection against demyelination ([3]; Block 1, day 7, 25 mg/Kg IV infusion): 22%
protection against demyelination (demyelination score) ([3]; Block 1, day 7, 70 mg/Kg IP): 44%
Demyelination score ([3]; Block 2, day 28, 10 mpk IP day 0 to day 6, vs placebo (p<0.05)): significantly lower
Demyelination score ([3]; Block 2, day 28, 25 mpk IP day 0 to day 6, vs placebo (p<0.05)): significantly lower
axonal loss ([4]; BN201 treatment, conclusions over blocks 1 and 2): reduced
protection against axonal loss (axonal loss score) ([4]; Block 1, day 7, 10, 25 and 70 mg/Kg IP): 36-39%
protection against axonal loss ([4]; Block 1, day 7, IV infusion 25 mg/Kg): 62%
Axonal loss score ([4]; Block 2, day 28, 10 mg/Kg IP day 0 to day 6, vs placebo (p<0.05)): significant reduction in axonal loss; also recorded: significantly lower
Axonal loss score [4, 15]: significant reduction in axonal loss; also recorded: significantly lower
protection of axons against injury ([4]; IP or IV, 10 to 70 mg/Kg/day for 6 days, short term (7 days) and long term (up to day 28 post-injury)): able to protect axons against injury
Body weight [5]: did not significantly change the body weight
inflammation [6]: reduced inflammation
protection against optic neuritis [7]: superior protection against optic neuritis
activation of the SGK pathway, including phosphorylation of Foxo3 or NDRG1 [9]: activates the serum-glucocorticoid (SGK) pathway
